Laboratory results reported in ChEMBL document CHEMBL4507260 (2021).
Calls of active or inactive are those of the source. No cut-off for these calls is given here.

What was measured:
[1] = biological target: Dual specificity protein kinase CLK4 (Homo sapiens) (UniProt Q9HAZ1); conditions: Compound concentration 1000.0 nM
[2] = system: Epidermal growth factor receptor (Homo sapiens), P00533 [G719C]; conditions: Compound concentration 1000.0 nM
D(4) dopamine receptor [3] = biological target: T1, D(4) dopamine receptor (Homo sapiens, UniProt P21917); assay: Cellular FLIPR (fluorometric imaging plate reader) assay
T1 sequence (P21917 whole entry): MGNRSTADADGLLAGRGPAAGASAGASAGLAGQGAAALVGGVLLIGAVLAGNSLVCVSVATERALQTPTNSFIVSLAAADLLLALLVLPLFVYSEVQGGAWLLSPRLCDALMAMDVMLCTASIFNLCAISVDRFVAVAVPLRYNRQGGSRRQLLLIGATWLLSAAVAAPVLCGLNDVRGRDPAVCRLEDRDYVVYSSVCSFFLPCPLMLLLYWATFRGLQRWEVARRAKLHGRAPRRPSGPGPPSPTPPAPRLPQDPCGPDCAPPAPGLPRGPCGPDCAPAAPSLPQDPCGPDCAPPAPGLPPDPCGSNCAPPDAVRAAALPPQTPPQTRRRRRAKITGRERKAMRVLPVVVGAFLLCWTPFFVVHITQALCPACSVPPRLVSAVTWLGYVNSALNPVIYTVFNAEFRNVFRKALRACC

[4] = biological target: Translocator protein (Rattus norvegicus) (UniProt P16257); conditions: Compound concentration 10.0 uM
Translocator protein (Rattus norvegicus), sequence (P16257 whole entry, looked up): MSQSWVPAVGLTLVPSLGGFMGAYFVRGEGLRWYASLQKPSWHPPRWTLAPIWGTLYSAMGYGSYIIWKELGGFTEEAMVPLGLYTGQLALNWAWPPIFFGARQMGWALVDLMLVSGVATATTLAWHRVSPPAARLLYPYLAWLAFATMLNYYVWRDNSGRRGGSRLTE
Description: BZD (peripheral) CEREP ligand profiling

[5] = biological target: Adenosine receptor A3 (Homo sapiens) (UniProt P0DMS8); assay: A3 CEREP ligand profiling; conditions: Compound concentration 10.0 uM
[6] = biological target: Cannabinoid receptor 1 (Homo sapiens) (UniProt P21554); conditions: Compound concentration 10.0 uM
Cannabinoid receptor 1 (Homo sapiens), sequence (P21554 whole entry): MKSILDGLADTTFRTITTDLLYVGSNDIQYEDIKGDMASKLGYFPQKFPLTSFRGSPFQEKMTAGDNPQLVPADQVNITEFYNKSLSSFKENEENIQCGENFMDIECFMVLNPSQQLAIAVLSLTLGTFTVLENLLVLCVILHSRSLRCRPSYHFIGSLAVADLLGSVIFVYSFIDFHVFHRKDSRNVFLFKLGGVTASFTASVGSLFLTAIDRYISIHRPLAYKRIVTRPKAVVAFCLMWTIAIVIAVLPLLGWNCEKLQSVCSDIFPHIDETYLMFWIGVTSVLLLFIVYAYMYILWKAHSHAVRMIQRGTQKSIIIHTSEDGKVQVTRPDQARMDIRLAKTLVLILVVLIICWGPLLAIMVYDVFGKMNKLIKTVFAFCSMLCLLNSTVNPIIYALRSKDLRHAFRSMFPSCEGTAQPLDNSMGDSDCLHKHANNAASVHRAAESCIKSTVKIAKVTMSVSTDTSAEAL
Description: CB1 CEREP ligand profiling

[7] = biological target: Adrenergic receptor alpha-1 (Homo sapiens) (UniProt P35348+P25100+P35368); assay: a 1 CEREP ligand profiling; assay type: protein assay; conditions: Compound concentration 10.0 uM
[8] = biological target: Histamine H2 receptor (Homo sapiens) (UniProt P25021); conditions: Compound concentration 10.0 uM
Histamine H2 receptor (Homo sapiens), sequence (P25021 whole entry): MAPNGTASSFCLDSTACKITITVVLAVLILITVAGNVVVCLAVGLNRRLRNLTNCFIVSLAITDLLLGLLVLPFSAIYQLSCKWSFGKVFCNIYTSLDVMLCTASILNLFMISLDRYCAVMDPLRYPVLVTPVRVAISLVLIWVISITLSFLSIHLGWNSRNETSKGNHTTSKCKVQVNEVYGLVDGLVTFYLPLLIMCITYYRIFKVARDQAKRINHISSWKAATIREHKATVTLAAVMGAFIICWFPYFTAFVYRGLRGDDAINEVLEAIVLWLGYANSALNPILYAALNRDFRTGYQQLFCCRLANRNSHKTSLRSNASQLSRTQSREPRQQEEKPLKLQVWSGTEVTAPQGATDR
Description: H2 CEREP ligand profiling

[9] = biological target: Beta-2 adrenergic receptor (Homo sapiens) (UniProt P07550); assay: b 2 CEREP ligand profiling; conditions: Compound concentration 10.0 uM
Beta-2 adrenergic receptor (Homo sapiens), sequence (P07550 whole entry, looked up): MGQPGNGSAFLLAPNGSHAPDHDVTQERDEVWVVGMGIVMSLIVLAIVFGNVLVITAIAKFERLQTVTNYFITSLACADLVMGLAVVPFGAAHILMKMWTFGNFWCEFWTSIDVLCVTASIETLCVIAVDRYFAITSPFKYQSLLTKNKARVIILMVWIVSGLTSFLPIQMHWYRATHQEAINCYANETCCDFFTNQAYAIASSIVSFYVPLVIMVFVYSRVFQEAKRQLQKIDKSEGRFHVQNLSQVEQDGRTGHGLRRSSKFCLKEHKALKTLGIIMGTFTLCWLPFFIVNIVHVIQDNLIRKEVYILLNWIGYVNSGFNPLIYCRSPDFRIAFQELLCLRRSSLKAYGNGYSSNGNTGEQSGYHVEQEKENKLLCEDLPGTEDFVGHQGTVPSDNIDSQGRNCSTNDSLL

[10] = biological target: Vasopressin V1a receptor (Homo sapiens) (UniProt P37288); conditions: Compound concentration 10.0 uM
Vasopressin V1a receptor (Homo sapiens), sequence (P37288 whole entry, looked up): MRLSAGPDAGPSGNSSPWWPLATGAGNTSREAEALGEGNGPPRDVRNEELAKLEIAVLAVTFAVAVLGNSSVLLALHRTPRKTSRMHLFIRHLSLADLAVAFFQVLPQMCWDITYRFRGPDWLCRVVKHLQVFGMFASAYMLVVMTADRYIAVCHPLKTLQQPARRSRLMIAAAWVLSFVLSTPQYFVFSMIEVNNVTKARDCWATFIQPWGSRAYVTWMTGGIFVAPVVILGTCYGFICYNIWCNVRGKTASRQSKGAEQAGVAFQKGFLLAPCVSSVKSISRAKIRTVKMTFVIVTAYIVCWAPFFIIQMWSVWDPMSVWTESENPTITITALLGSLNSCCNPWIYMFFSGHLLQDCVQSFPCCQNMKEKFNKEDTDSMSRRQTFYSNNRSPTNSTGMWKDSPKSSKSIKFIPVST
Description: V1A CEREP ligand profiling

[11] = biological target: Muscarinic acetylcholine receptor M2 (Homo sapiens) (UniProt P08172); conditions: Compound concentration 10.0 uM
Description: M2 CEREP ligand profiling

[12] = biological target: Gastrin/cholecystokinin type B receptor (Homo sapiens) (UniProt P32239); assay: CCKB (CCK2) CEREP ligand profiling; conditions: Compound concentration 10.0 uM
[13] = biological target: D(2) dopamine receptor (Homo sapiens) (UniProt P14416); conditions: Compound concentration 10.0 uM
Description: D2 CEREP ligand profiling

[14] = biological target: Muscarinic acetylcholine receptor M3 (Homo sapiens) (UniProt P20309); conditions: Compound concentration 10.0 uM
Description: M3 CEREP ligand profiling

[15] = biological target: D(4) dopamine receptor (Homo sapiens) (UniProt P21917); conditions: Compound concentration 10.0 uM
Description: D4 CEREP ligand profiling

[16] = biological target: Nociceptin receptor (Homo sapiens) (UniProt P41146); conditions: Compound concentration 10.0 uM
Description: ORL1 CEREP ligand profiling

[17] = biological target: Substance-K receptor (Homo sapiens) (UniProt P21452); assay: NK2 CEREP ligand profiling; conditions: Compound concentration 10.0 uM
[18] = biological target: P2Y receptor (Homo sapiens) (UniProt Q9H244+P51582+P47900+P41231+Q15391+Q15077+Q96G91+Q9BPV8); conditions: Compound concentration 10.0 uM
Description: P2Y CEREP ligand profiling

[19] = biological target: Sodium-dependent dopamine transporter (Homo sapiens) (UniProt Q01959); assay: DA transporter CEREP ligand profiling; conditions: Compound concentration 10.0 uM
[20] = biological target: 5-hydroxytryptamine receptor 1A (Homo sapiens) (UniProt P08908); assay: 5-HT1A CEREP ligand profiling; conditions: Compound concentration 10.0 uM
[21] = biological target: Sodium channel alpha subunit (Na+ channel) (Homo sapiens, UniProt P35498+P35499+Q01118+Q14524+Q15858+Q99250+Q9NY46+Q9UI33+Q9UQD0+Q9Y5Y9); assay: Na+ channel CEREP ligand profiling; assay type: protein assay; conditions: compound concentration 10 uM
[22] = biological target: Galanin receptor type 1 (Homo sapiens) (UniProt P47211); conditions: Compound concentration 10.0 uM
Galanin receptor type 1 (Homo sapiens), sequence (P47211 whole entry): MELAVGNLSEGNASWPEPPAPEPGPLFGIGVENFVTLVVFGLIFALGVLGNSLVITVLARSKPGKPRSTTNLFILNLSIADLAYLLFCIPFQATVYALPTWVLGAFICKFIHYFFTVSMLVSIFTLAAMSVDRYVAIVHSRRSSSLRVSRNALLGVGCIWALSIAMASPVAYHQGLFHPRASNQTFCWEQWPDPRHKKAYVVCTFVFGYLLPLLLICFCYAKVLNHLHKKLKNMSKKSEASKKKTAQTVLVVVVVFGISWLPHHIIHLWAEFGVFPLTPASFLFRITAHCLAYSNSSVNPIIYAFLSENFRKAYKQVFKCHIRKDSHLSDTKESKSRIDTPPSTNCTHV
Description: GAL1 CEREP ligand profiling

[23] = biological target: 5-hydroxytryptamine receptor 2A (Homo sapiens) (UniProt P28223); conditions: Compound concentration 10.0 uM
5-hydroxytryptamine receptor 2A (Homo sapiens), sequence (P28223 whole entry): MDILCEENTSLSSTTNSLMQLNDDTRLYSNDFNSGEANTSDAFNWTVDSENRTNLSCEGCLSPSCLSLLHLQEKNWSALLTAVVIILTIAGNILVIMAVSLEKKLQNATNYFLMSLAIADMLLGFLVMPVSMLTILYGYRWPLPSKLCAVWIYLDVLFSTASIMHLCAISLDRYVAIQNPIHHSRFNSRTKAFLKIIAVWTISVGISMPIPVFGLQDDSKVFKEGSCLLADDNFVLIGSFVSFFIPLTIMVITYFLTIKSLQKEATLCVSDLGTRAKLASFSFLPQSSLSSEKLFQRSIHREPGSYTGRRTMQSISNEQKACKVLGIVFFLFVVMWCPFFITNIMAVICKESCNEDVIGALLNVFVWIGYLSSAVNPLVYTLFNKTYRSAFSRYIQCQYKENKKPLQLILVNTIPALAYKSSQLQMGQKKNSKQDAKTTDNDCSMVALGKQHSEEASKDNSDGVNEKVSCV
Description: 5-HT2A CEREP ligand profiling

D(4) dopamine receptor [24] = biological target: T1, D(4) dopamine receptor; assay: Radioligand assay (DRD4.4)
D(4) dopamine receptor [25] = biological target: D(4) dopamine receptor (Homo sapiens, UniProt P21917); assay: Radioligand assay (DRD4.7)
[26] = biological target: Muscarinic acetylcholine receptor M1 (Homo sapiens) (UniProt P11229); conditions: Compound concentration 10.0 uM
Description: M1 CEREP ligand profiling

[27] = biological target: Voltage-gated L-type calcium channel (Ca2+ channel) (Homo sapiens, UniProt O60840+Q01668+Q13698+Q13936); assay: Ca2+ channel CEREP ligand profiling; assay type: protein assay; conditions: compound concentration 10 uM
[28] = biological target: Delta-type opioid receptor (Homo sapiens) (UniProt P41143); conditions: Compound concentration 10.0 uM
Delta-type opioid receptor (Homo sapiens), sequence (P41143 whole entry): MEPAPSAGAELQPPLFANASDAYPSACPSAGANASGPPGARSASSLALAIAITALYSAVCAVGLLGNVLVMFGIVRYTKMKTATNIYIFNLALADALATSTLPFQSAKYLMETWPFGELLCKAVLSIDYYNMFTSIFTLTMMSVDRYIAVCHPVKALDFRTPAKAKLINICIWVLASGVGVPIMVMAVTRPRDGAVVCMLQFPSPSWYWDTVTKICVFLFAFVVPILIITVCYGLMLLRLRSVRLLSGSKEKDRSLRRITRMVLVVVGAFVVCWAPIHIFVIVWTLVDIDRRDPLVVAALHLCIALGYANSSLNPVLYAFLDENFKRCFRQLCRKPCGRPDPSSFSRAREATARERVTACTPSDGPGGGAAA
Description: delta CEREP ligand profiling

[29] = biological target: Kappa-type opioid receptor (Homo sapiens) (UniProt P41145); assay: kappa CEREP ligand profiling; conditions: Compound concentration 10.0 uM
[30] = biological target: Muscarinic acetylcholine receptor M5 (Homo sapiens) (UniProt P08912); conditions: Compound concentration 10.0 uM
Description: M5 CEREP ligand profiling

[31] = biological target: C-X-C chemokine receptor type 2 (Homo sapiens) (UniProt P25025); conditions: Compound concentration 10.0 uM
Description: IL-8B (CXCR2) CEREP ligand profiling

[32] = biological target: Substance-P receptor (Homo sapiens) (UniProt P25103); conditions: Compound concentration 10.0 uM
Substance-P receptor (Homo sapiens), sequence (P25103 whole entry): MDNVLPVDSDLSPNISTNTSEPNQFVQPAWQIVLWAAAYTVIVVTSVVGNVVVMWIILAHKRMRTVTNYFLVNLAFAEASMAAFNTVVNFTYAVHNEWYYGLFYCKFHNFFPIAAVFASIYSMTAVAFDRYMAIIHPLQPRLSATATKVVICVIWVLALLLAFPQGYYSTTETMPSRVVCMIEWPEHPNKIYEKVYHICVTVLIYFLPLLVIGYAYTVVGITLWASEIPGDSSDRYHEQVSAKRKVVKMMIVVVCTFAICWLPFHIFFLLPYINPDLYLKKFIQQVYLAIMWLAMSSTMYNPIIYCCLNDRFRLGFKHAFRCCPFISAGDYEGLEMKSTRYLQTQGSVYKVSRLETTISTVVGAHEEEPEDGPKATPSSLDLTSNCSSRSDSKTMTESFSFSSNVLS
Description: NK1 CEREP ligand profiling

[33] = biological target: Neuropeptide Y receptor type 1 (Homo sapiens) (UniProt P25929); conditions: Compound concentration 10.0 uM
Description: Y1 CEREP ligand profiling

[34] = biological target: Voltage-gated potassium channel (K+V channel) (Homo sapiens, UniProt O43525+O43526+O95259+P16389+P17658+P22001+P22459+P22460+P48547+P51787+P56696+Q03721+Q09470+Q12809+Q14003+Q14721+Q16322+Q6PIU1+Q8NCM2+Q8TAE7+Q8TDN1+Q8TDN2+Q92953+Q96KK3+Q96L42+Q96PR1+Q96RP8+Q9BQ31+Q9H252+Q9H3M0+Q9NR82+Q9NS40+Q9NSA2+Q9NZV8+Q9UIX4+Q9UJ96+Q9UK17+Q9ULD8+Q9ULS6+Q9UQ05); assay: K+V channel CEREP ligand profiling; assay type: protein assay; conditions: compound concentration 10 uM
[35] = biological target: B2 bradykinin receptor (Homo sapiens) (UniProt P30411); conditions: Compound concentration 10.0 uM
Description: B2 CEREP ligand profiling

[36] = biological target: Cholecystokinin receptor type A (Homo sapiens) (UniProt P32238); conditions: Compound concentration 10.0 uM
Cholecystokinin receptor type A (Homo sapiens), sequence (P32238 whole entry): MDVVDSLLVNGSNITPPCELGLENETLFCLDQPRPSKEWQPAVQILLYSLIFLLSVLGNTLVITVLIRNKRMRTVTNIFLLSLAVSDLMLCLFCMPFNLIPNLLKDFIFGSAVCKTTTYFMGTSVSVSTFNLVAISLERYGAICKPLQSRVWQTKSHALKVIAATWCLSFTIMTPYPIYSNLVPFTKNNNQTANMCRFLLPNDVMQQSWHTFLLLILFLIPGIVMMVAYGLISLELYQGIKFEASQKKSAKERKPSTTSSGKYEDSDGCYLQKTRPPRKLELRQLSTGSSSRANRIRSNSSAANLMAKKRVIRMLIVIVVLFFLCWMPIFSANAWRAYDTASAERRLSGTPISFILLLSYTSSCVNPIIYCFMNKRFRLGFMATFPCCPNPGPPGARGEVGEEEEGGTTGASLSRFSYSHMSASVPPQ
Description: CCKA (CCK1) CEREP ligand profiling

[37] = biological target: Adenosine receptor A2a (Homo sapiens) (UniProt P29274); assay: A2A CEREP ligand profiling; conditions: Compound concentration 10.0 uM
Adenosine receptor A2a (Homo sapiens), sequence (P29274 whole entry): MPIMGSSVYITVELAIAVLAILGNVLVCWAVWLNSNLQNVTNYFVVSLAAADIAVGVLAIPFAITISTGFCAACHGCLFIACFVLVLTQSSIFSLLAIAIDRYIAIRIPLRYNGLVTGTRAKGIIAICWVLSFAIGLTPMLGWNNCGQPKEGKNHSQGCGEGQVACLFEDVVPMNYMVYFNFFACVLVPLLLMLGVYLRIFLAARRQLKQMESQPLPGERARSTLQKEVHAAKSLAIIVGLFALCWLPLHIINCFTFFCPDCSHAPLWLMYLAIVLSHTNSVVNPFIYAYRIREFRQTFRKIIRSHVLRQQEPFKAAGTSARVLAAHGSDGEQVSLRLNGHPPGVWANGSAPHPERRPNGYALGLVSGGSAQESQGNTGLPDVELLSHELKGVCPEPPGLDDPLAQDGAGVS

[38] = biological target: Melatonin receptor type 1A (Homo sapiens) (UniProt P48039); assay: ML1 CEREP ligand profiling; conditions: Compound concentration 10.0 uM

Dual specificity protein kinase CLK4 (Homo sapiens), sequence (Q9HAZ1 whole entry, looked up): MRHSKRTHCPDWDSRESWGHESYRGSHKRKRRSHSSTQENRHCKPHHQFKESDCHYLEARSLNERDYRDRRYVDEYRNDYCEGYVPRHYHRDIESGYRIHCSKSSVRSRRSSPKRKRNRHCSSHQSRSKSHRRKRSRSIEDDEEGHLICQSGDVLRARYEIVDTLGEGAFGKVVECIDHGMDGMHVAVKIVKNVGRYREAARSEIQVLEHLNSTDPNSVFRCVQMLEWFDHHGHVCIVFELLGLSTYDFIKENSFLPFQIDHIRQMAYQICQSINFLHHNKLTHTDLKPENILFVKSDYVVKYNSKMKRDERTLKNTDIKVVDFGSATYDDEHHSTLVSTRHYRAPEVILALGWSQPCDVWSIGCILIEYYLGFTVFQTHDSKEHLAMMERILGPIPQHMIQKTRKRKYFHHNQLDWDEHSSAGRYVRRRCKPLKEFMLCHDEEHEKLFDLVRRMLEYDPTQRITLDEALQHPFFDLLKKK

In the case of `CSc1cccnc1N1CCN(Cc2nc3ccccc3[nH]2)CC1` [A-769], the residual activity [1] is reported as 100%, the residual activity [2] is reported as 96% and the IC50 (D(4) dopamine receptor [3]) is reported as > 10000 nM (not active).
In the case of `c1ccc(N2CCN(Cc3nc4ccccc4[nH]3)CC2)nc1` [ABT-724], the inhibition [4] is reported as less than 10%, the inhibition [5] is reported as 11% and the inhibition [6] is reported as less than 10%. The inhibition [7] was 23%, the inhibition [8] was less than 10% and the inhibition [9] was 13%. The inhibition [10] was less than 10%, the inhibition [11] was less than 10% and the inhibition [12] was 17%. For the same compound, the inhibition [13] was less than 10%, the inhibition [14] was less than 10% and the inhibition [15] was 99%. The inhibition [16] was less than 10%, the inhibition [17] was 15% and the inhibition [18] was less than 10%. The inhibition [19] was 11%, the inhibition [20] was 73% and the inhibition at 10 µM [21] was < 10% (not active). The inhibition [22] was less than 10%, the inhibition [23] was less than 10% and the Ki (D(4) dopamine receptor [24]) was 63.6 nM (active). For the same compound, the Ki (D(4) dopamine receptor [25]) was 46.8 nM (active), the inhibition [26] was less than 10% and the inhibition at 10 µM [27] was < 10% (not active). It also gave an inhibition [28] of less than 10%, an inhibition [29] of 68% and an inhibition [30] of less than 10%. The inhibition [31] was less than 10%, the inhibition [32] was less than 10% and the inhibition [33] was less than 10%. For the same compound, the inhibition at 10 µM [34] was < 10% (not active), the inhibition [35] was less than 10% and the inhibition [36] was less than 10%. It also gave an inhibition [37] of 28% and an inhibition [38] of 51%.
